Laboratory results from PubChem BioAssay AID192 (DTP/NCI, 2004).
Values joined by “and” are separate entries in the source; they are usually repeats but may differ in a detail not shown here. Equal entries are not always repeated. Inconclusive results and toxic doses are left out. Rule for the calls: active = survival T/C of 150% or more; inactive = T/C below 125% in these data. Peptide text beside a SMILES is read from it. * marks the point of attachment. Cbz = O=C(OCc1ccccc1)*

Tested on: BDF1 mice, B16 melanoma ip, median survival T/C
Experiment: NCI In Vivo Anticancer Drug Screen. Data for tumor model B16 Melanoma (intraperitoneal) in B6D2F1 (BDF1) mice
Conditions: endpoint: median survival time, higher = longer survival
Procedure, shortened: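 Vehicle-treated animals serve as the reference (C); treated animals (T) are scored for survival or tumor size after tumor transplantation.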

[1] = dose: 2.5 mg/kg/injection, schedule: Q01DX009 (ip), vehicle: saline
[2] = dose: 5.0 mg/kg/injection, schedule: Q01DX009 (ip), vehicle: saline
[3] = dose: 10.0 mg/kg/injection, schedule: Q01DX009 (ip), vehicle: saline
[4] = dose: 100.0 mg/kg/injection, schedule: Q01DX009 (ip), vehicle: Klucel (hydroxypropylcellulose) (HPC)
[5] = dose: 200.0 mg/kg/injection, schedule: Q01DX009 (ip), vehicle: Klucel (hydroxypropylcellulose) (HPC)
[6] = dose: 400.0 mg/kg/injection, schedule: Q01DX009 (ip), vehicle: Klucel (hydroxypropylcellulose) (HPC)
[7] = dose: 100.0 mg/kg/injection, schedule: Q04DX003 (ip), vehicle: saline with Tween-80
[8] = dose: 200.0 mg/kg/injection, schedule: Q04DX003 (ip), vehicle: saline with Tween-80
[9] = dose: 50.0 mg/kg/injection, schedule: Q01DX009 (ip), vehicle: saline with Tween-80
[10] = dose: 50.0 mg/kg/injection, schedule: Q04DX003 (ip), vehicle: saline with Tween-80
[11] = dose: 100.0 mg/kg/injection, schedule: Q01DX009 (ip), vehicle: saline with Tween-80
[12] = dose: 200.0 mg/kg/injection, schedule: Q01DX009 (ip), vehicle: saline with Tween-80
[13] = dose: 400.0 mg/kg/injection, schedule: Q01DX009 (ip), vehicle: saline with Tween-80
[14] = dose: 25.0 mg/kg/injection, schedule: Q01DX009 (ip), vehicle: saline with Tween-80
[15] = dose: 50.0 mg/kg/injection, schedule: Q01DX009 (ip), vehicle: Klucel (hydroxypropylcellulose) (HPC)

Measured: T/C

Nc1ccc2nc3ccc(=O)cc-3n(-c3ccccc3)c2c1
inactive: dose: 0.5 mg/kg/injection, schedule: Q01DX009 (ip), vehicle: saline 109 % of control | dose: 1.0 mg/kg/injection, schedule: Q01DX009 (ip), vehicle: saline 104 % of control | [1] 111 % of control | [2] 104 % of control | [3] 104 % of control

CC(=O)Nc1ccc(C#N)c2ccccc12
inactive: [4] 124 % of control | [5] 111 % of control | [6] 111 % of control

CCN(C(=O)Nc1ccccc1)c1ccccc1
inactive: [7] 94 % of control | [8] 100 % of control | dose: 400.0 mg/kg/injection, schedule: Q04DX003 (ip), vehicle: saline with Tween-80 97 % of control

CC(=O)OC(C)C(=O)C(Cl)(Cl)Cl (stereo not given)
inactive: [4] 96 % of control | [5] 107 % of control | [6] 107 % of control

CCOc1ccccc1NC(=O)Nc1cccc2ccccc12
inactive: [4] 103 % of control | [5] 100 % of control | [6] 103 % of control

Cc1cc(NC(=O)CCc2ccc(N3C(N)=NC(N)=NC3(C)C)cc2)ccc1S(=O)(=O)F
inactive: dose: 50.0 mg/kg/injection, schedule: Q01DX009 (ip), vehicle: saline sonified 118 % of control | dose: 100.0 mg/kg/injection, schedule: Q01DX009 (ip), vehicle: saline sonified 94 % of control | dose: 200.0 mg/kg/injection, schedule: Q01DX009 (ip), vehicle: saline sonified 100 % of control

C[Si](C)(C)c1cc(F)c(F)c(F)c1F
inactive: dose: 100.0 mg/kg/injection, schedule: Q04DX003 (ip), vehicle: Klucel (hydroxypropylcellulose) (HPC) 90 % of control | dose: 200.0 mg/kg/injection, schedule: Q04DX003 (ip), vehicle: Klucel (hydroxypropylcellulose) (HPC) 92 % of control | dose: 400.0 mg/kg/injection, schedule: Q04DX003 (ip), vehicle: Klucel (hydroxypropylcellulose) (HPC) 94 % of control

OC(CCCCl)CC(O)(C(F)(F)F)C(F)(F)F (stereo not given)
inactive: [9] 111 % of control | [10] 112 % of control | [11] 102 % of control | [7] 115 % of control | [12] 108 % of control | [8] 120 % of control

Clc1nnc(Nc2ccccc2)c2ccccc12
inactive: [4] 92 % of control | [5] 97 % of control | [6] 86 % of control

CCOC(=O)CCCc1ccc(N=NN(C)C)cc1
inactive: dose: 1.56 mg/kg/injection, schedule: Q01DX009 (ip), vehicle: saline with Tween-80 102 % of control | dose: 3.13 mg/kg/injection, schedule: Q01DX009 (ip), vehicle: saline with Tween-80 105 % of control | dose: 6.25 mg/kg/injection, schedule: Q01DX009 (ip), vehicle: saline with Tween-80 100 % of control

C[N+](C)(C)CCOC(=O)c1ccccc1
inactive: [11] 91 % of control | [12] 93 % of control | [13] 91 % of control

CCCCCCCC(=O)O[C@H]1[C@H]2[C@@H](CC1(C)C)C(=O)[C@]13O[C@H]1C(=O)[C@]1(CO1)[C@]23C
inactive: dose: 0.31 mg/kg/injection, schedule: Q01DX009 (ip), vehicle: Klucel (hydroxypropylcellulose) (HPC) 98 % of control | dose: 0.63 mg/kg/injection, schedule: Q01DX009 (ip), vehicle: Klucel (hydroxypropylcellulose) (HPC) 102 % of control | dose: 0.63 mg/kg/injection, schedule: Q01DX009 (ip), vehicle: saline with Tween-80 92 % of control | dose: 1.25 mg/kg/injection, schedule: Q01DX009 (ip), vehicle: Klucel (hydroxypropylcellulose) (HPC) 100 % of control | dose: 1.25 mg/kg/injection, schedule: Q01DX009 (ip), vehicle: saline with Tween-80 89 % of control | dose: 2.5 mg/kg/injection, schedule: Q01DX009 (ip), vehicle: Klucel (hydroxypropylcellulose) (HPC) 98 % of control | dose: 2.5 mg/kg/injection, schedule: Q01DX009 (ip), vehicle: saline with Tween-80 92 % of control | dose: 5.0 mg/kg/injection, schedule: Q01DX009 (ip), vehicle: Klucel (hydroxypropylcellulose) (HPC) 90 % of control | dose: 10.0 mg/kg/injection, schedule: Q01DX009 (ip), vehicle: Klucel (hydroxypropylcellulose) (HPC) 86 % of control

CCN(CC)CCNc1ccc([N+](=O)[O-])cc1[N+](=O)[O-]
inactive: [14] 100 % of control | [9] 113 % of control | [10] 102 % of control | [11] 100 % of control | [7] 100 % of control

OCC12COCN1COC2
inactive: dose: 12.5 mg/kg/injection, schedule: Q01DX009 (ip), vehicle: saline 117 % of control | dose: 25.0 mg/kg/injection, schedule: Q01DX009 (ip), vehicle: saline 119 % of control | dose: 50.0 mg/kg/injection, schedule: Q01DX009 (ip), vehicle: saline 111 % of control | dose: 100.0 mg/kg/injection, schedule: Q01DX009 (ip), vehicle: saline 117 % of control | dose: 200.0 mg/kg/injection, schedule: Q01DX009 (ip), vehicle: saline 119 % of control

CCOC(=O)c1ccc(OC(=O)Nc2ccccc2OC)cc1
inactive: [11] 95 % of control | [12] 88 % of control

CC[P+](c1ccccc1)(c1ccccc1)c1ccccc1
inactive: dose: 1.25 mg/kg/injection, schedule: Q04DX003 (ip), vehicle: saline 97 % of control | dose: 2.5 mg/kg/injection, schedule: Q04DX003 (ip), vehicle: saline 93 % of control | dose: 5.0 mg/kg/injection, schedule: Q04DX003 (ip), vehicle: saline 95 % of control

CC1(C)CC(O)(C(Cl)c2ccccc2)C(=O)c2ccccc21 (stereo not given)
inactive: [15] 103 % of control | [4] 95 % of control | [5] 94 % of control | [6] 90 % of control

CCCCCCCCCCOCCCCCCCCCC
inactive: dose: 12.5 mg/kg/injection, schedule: Q01DX009 (ip), vehicle: saline with Tween-80 95 % of control | [14] 95 % of control | [9] 95 % of control | [12] 88 % of control | [13] 88 % of control

O=C(CCCl)NC(Cc1ccccc1)c1ccccc1 (stereo not given)
inactive: [4] 110 % of control | [5] 96 % of control | [6] 96 % of control

Cc1c2ccccc2cc2cc[n+]3ccccc3c12
inactive: dose: 3.75 mg/kg/injection, schedule: Q01DX009 (ip), vehicle: Klucel (hydroxypropylcellulose) (HPC) 98 % of control | dose: 7.5 mg/kg/injection, schedule: Q01DX009 (ip), vehicle: Klucel (hydroxypropylcellulose) (HPC) 98 % of control | dose: 15.0 mg/kg/injection, schedule: Q01DX009 (ip), vehicle: Klucel (hydroxypropylcellulose) (HPC) 102 % of control

CCOc1ccc(NC(=O)c2cccc(C(=O)Nc3ccc(OCC)cc3)c2)cc1
inactive: [4] 103 % of control | [5] 93 % of control | [6] 86 % of control

[Cu+2].[NH-]CC(=O)O.[NH-]CC(=O)O
inactive: [1] 97 % of control | dose: 2.5 mg/kg/injection, schedule: Q04DX003 (ip), vehicle: saline with Tween-80 121 % of control | [2] 95 % of control and 102 % of control | dose: 5.0 mg/kg/injection, schedule: Q04DX003 (ip), vehicle: saline with Tween-80 115 % of control | [3] 95 % of control and 100 % of control | dose: 10.0 mg/kg/injection, schedule: Q04DX003 (ip), vehicle: saline with Tween-80 100 % of control

O=C(NC(Cc1ccccc1)C(=O)NC(Cc1ccc(O)cc1)C(=O)O)OCc1ccccc1 (stereo not drawn) (Cbz-Phe-Tyr-OH; configuration not given here)
inactive: [9] 105 % of control | [11] 86 % of control

CCOC(=O)C(=Cc1ccc(C=C(C(=O)OCC)C(=O)OCC)cc1)C(=O)OCC
inactive: [15] 93 % of control | [5] 93 % of control
